The record followed here is the supplement of paper PMC9151546.

Counter-ions that a name gives are not always drawn. ± gives the standard deviation of the averaged measurements.

Assay [1] concerns CHO-K1. As to the kind of experiment: benchmark concentration for 60% increase in hypodiploid frequency (BMC60); higher = less potent aneugen. Put shortly:
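CHO cells were exposed to 19 concentrations (4.50–200 µM; 1% DMSO vehicle) for 24 h at 37 °C without S9, or 3–4 h with Aroclor 1254-induced rat liver S9 then 24 h recovery. Hypodiploid nuclei percentage was measured by flow cytometry; concentrations with relative survival below 40% were excluded, and benchmark response was a 60% increase over DMSO control. The benchmark concentration was fitted in PROAST with Hill and exponential model families.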

The subject of assay [2] is CHO-K1. As to the kind of experiment: benchmark concentration for 30% increase in micronucleus frequency (BMC30); higher = less potent clastogen. As for the experimental part: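 Benchmark concentration modelling (PROAST, Hill/exponential model families) of the 19-concentration flow-cytometric micronucleus assay in CHO-K1 cells, with and without rat liver S9. Only non-cytotoxic and adequate (relative survival >=40%) concentrations were used. BMR was a 30% increase in %MN (BMC30) or a 60% increase in %hypodiploid (BMC60) over control.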

Where [3] appears, read: S9 metabolic activation: with S9.
Setting [4] is: S9 metabolic activation: without S9.

Consider `O=C(CCl)c1ccccc1` [2-Chloroacetophenone], for which the figures for the benchmark concentration in the assay with CHO-K1 [1] (setting [3]) and in the assay on CHO-K1 [2] (setting [3]) were 62 µM and 60 µM, respectively.

Consider `O=C1NC(=O)C(c2ccccc2)(c2ccccc2)N1` [5,5-Diphenylhydantoin], for which the benchmark concentration turned out to be 17 µM in the assay with CHO-K1 [1] (setting [4]) and 13 µM in the assay on CHO-K1 [2] (setting [4]).

Consider `Cc1cccc(C)c1O` [2,6-Dimethylphenol], for which the benchmark concentration with CHO-K1 [1] (setting [4]) came out at 110 µM; in the assay on CHO-K1 [2] (setting [4]), 87 µM.

For the compound `Cc1cc(=O)[nH]c(=S)[nH]1` [6-Methyl-2-thiouracil], the benchmark concentration in the assay on CHO-K1 [1] (setting [3]) is 83 µM; in the assay with CHO-K1 [1] (setting [4]), 57 µM; with CHO-K1 [2] (setting [4]) it was under 4.5 µM.

Take `CN(C)C(=O)Nc1ccc(Cl)cc1` [Monuron]: the benchmark concentration with CHO-K1 [1] (setting [4]) is 82 µM; in the assay on CHO-K1 [2] (setting [4]), 8.6 µM.

On to `CC(C)(c1ccc(O)cc1)c1ccc(O)cc1` [Bisphenol A], for which the figures for the benchmark concentration with CHO-K1 [1] (setting [4]) and with CHO-K1 [2] (setting [4]) were 48 µM and 71 µM, respectively.

In the case of `O=C(O)C1C(C(=O)O)C2(Cl)C(Cl)=C(Cl)C1(Cl)C2(Cl)Cl` (stereo unspecified) [Chlorendic acid], the benchmark concentration is 97 µM in the assay on CHO-K1 [1] (setting [4]) and 110 µM with CHO-K1 [2] (setting [4]).

Take `Cc1cc(O)ccc1Cl` [4-Chloro-3-methylphenol]: the benchmark concentration in the assay with CHO-K1 [1] (setting [4]) worked out at 46 µM; with CHO-K1 [2] (setting [3]) it was 18 µM; with CHO-K1 [2] (setting [4]), 41 µM.

Consider `CCOC(=O)c1ccccc1C(=O)OCC` [Diethyl phthalate], for which the values for the benchmark concentration in the assay on CHO-K1 [1] (setting [4]) and with CHO-K1 [2] (setting [4]) were 99 µM and 100 µM, respectively.

In the case of `Nc1nc(=O)c2nc(CNc3ccc(C(=O)N[C@@H](CCC(=O)O)C(=O)O)cc3)cnc2[nH]1` [Folic acid], the benchmark concentration in the assay on CHO-K1 [1] (setting [4]) came out at 110 µM; in the assay with CHO-K1 [2] (setting [3]) it was 57 µM.

For `Nc1ccc(Cl)cc1` [4-Chloroaniline], the benchmark concentration amounted to 31 µM in the assay with CHO-K1 [1] (setting [4]) and 63 µM in the assay on CHO-K1 [2] (setting [4]).

`C=CCOC(=O)c1ccccc1C(=O)OCC=C` [Diallyl phthalate]: the figures for the benchmark concentration in the assay with CHO-K1 [1] (setting [4]) and with CHO-K1 [2] (setting [3]) were 65 µM and 61 µM, respectively.

Turning to `NC(=Nc1ccccc1)Nc1ccccc1` [1,3-Diphenylguanidine], the results for the benchmark concentration in the assay on CHO-K1 [1] (setting [4]) and in the assay with CHO-K1 [2] (setting [4]) were 67 µM and 78 µM, respectively.

As for `CCCCc1oc2ccccc2c1C(=O)c1cc(I)c(OCCN(CC)CC)c(I)c1` [Amiodarone hydrochloride], the benchmark concentration is 11 µM with CHO-K1 [1] (setting [3]) and 16 µM in the assay on CHO-K1 [2] (setting [3]).

With `O=NN(c1ccccc1)c1ccccc1` [N-Nitrosodiphenylamine], the benchmark concentration with CHO-K1 [1] (setting [4]) came out at 25 µM; in the assay on CHO-K1 [2] (setting [3]) it was 120 µM; in the assay on CHO-K1 [2] (setting [4]), 72 µM.

`COC(=O)NC(=S)Nc1ccccc1NC(=S)NC(=O)OC` [Thiophanate-methyl]: the results for the benchmark concentration with CHO-K1 [1] (setting [4]) and in the assay on CHO-K1 [2] (setting [4]) were 20.5 ± 3.5 µM and 16.7 ± 4.2 µM, respectively.

For the compound `c1cc2c3c(cccc3c1)CC2` [Acenaphthene], the benchmark concentration in the assay on CHO-K1 [1] (setting [3]) was found to be 89 µM; in the assay with CHO-K1 [2] (setting [3]), 59 µM; in the assay with CHO-K1 [2] (setting [4]) it was 78 µM.

Take `Oc1ccc2ccccc2c1N=Nc1ccccc1` [C.I. Solvent Yellow 14]: the benchmark concentration amounted to 91 µM in the assay with CHO-K1 [1] (setting [3]), 11 µM in the assay with CHO-K1 [1] (setting [4]) and 23 µM with CHO-K1 [2] (setting [4]).

As to `c1ccc(C2CO2)cc1` (stereo unspecified) [Styrene oxide], the benchmark concentration in the assay on CHO-K1 [1] (setting [4]) came out at 19 µM; in the assay with CHO-K1 [2] (setting [4]) it was 96 µM.

As to `Cc1ccc(C)c(O)c1` [2,5-Dimethylphenol], the figures for the benchmark concentration with CHO-K1 [1] (setting [4]) and in the assay with CHO-K1 [2] (setting [4]) were 39 µM and 37 µM, respectively.

Take `COc1ccccc1N` [2-Anisidine]: the benchmark concentration is 120 µM in the assay on CHO-K1 [1] (setting [4]) and 46 µM in the assay with CHO-K1 [2] (setting [4]).

Turning to `CC(O)CO` (stereo unspecified) [1,2-Propylene glycol], the figures for the benchmark concentration in the assay on CHO-K1 [1] (setting [4]) and with CHO-K1 [2] (setting [4]) were 44 µM and 130 µM, respectively.

For `O=C1CCCCCN1` [Caprolactam], the benchmark concentration with CHO-K1 [1] (setting [4]) was 150 µM; in the assay on CHO-K1 [2] (setting [4]), 44 µM.

Take `O=c1n(CC2CO2)c(=O)n(CC2CO2)c(=O)n1CC1CO1` (stereo unspecified) [Triglycidyl isocyanurate]: the benchmark concentration in the assay with CHO-K1 [1] (setting [3]) is 53 µM; in the assay with CHO-K1 [1] (setting [4]) it was 25 µM; in the assay on CHO-K1 [2] (setting [3]) it was under 4.5 µM; in the assay on CHO-K1 [2] (setting [4]) it was under 4.5 µM.

Consider `O=c1[nH]cc(F)c(=O)[nH]1` [5-Fluorouracil], for which the benchmark concentration in the assay with CHO-K1 [1] (setting [4]) is 99 µM; in the assay with CHO-K1 [2] (setting [4]) it was 110 µM.

Turning to `CCc1ccc(CCOc2ccc(CC3SC(=O)NC3=O)cc2)nc1` (stereo unspecified) [Pioglitazone hydrochloride], the benchmark concentration with CHO-K1 [1] (setting [4]) is 7.6 µM; in the assay with CHO-K1 [2] (setting [4]) it was under 4.5 µM.

For `NNC(=O)c1ccncc1` [Isoniazid], the figures for the benchmark concentration in the assay on CHO-K1 [1] (setting [4]) and in the assay with CHO-K1 [2] (setting [3]) were 51 µM and 21 µM, respectively.
